In US20260007652A1, “Selective Modulators of AhR-Regulated Transcription and Method for Using Such Modulators to Treat Cancer” (OREGON STATE UNIVERSITY, priority 2022, published 2026):

Tests used:
HepG2 cells = experiment: Colony forming assay, HepG2 cells; type: cell-based, human; details: 10 μM, alone
Method: FIGS. 75A-75C compare the effects of 11-Cl-BBQ and Evoxine in hepatoma: A) Mouse Hepa-1 cells were treated with 11-Cl-BBQ, Evoxine either alone or in combination for 48 hours before assessing cell viability using Cell-Titer Glo Viability Assay. B) Hepa-1 cells treated with Evoxine, 11-Cl-BBQ either alone or in combination for 48 hours with induction of cell death measured by Annexin-V staining and detection by flow cytometry. C) Colony forming assay of HepG2 human hepatocellular carcinoma cells seeded at 300 cell/well in a 24-well plate before treatment with 11-Cl-BBQ, Evoxine either alone or in combination at the indicated concentrations for two weeks, followed by fixation and staining with methylene blue. Quantitation of colonies is shown on the right.
Cells were seeded at a density of 500 cell/well in triplicate in 6-well plates, and the following day, cells were treated with compounds and allowed to incubate for 2-3 weeks before fixation with 50% ethanol/water solution containing 0.1% methylene blue overnight. Colonies were counted manually, or with OpenCFU colony counting software, Images were acquired on a ChemiDoc imaging instrument.

H460 cells [1] = experiment: Cell cycle analysis, H460 cells; type: cell-based, human; details: 2.5 μM, 24 hours
Method: Cells were harvested by applying trypsin-EDTA then washed twice with phosphate-buffered saline (PBS) solution, fixed with 70% ethanol for 15 minutes at room temperature and kept at −20° C. overnight. Fixed samples were washed twice with PBS and stained with Hoechst 33258 (Invitrogen, Carlsbad, CA) at the final concentration of 1 μg/ml in the 0.1% Triton X-100/PBS for 20 minutes at room temperature. DNA content was analyzed by flow cytometer for 10,000 cells per sample, singlets population was selected for further analysis and cell cycle was assigned by fitting the DNA content into Dean-Jett-Fox model using FlowJo software.

lung cancer cells = experiment: Viability of lung cancer cell lines (CellTiter Glo); type: cell-based, human; details: 10 nM to 10 μM, 72 hours
Method: Cancer cells were seeded in 96-well plates at a density of 3,000 cells per well in their optimal culture medium supplemented with 1% FBS overnight, then compounds were added at indicated concentrations and incubated for 72 hours; otherwise, different treatment times will be specified. Cell viability was measured using the ATP-based CellTiter Glo assay (Promega-Madison, WI) following the manufacturer's protocol. Luminescent signals were recorded using the Tropix TR717 microplate luminometer. The viability of cultures following each treatment was normalized to vehicle treatment (0.1% DMSO (v/v)).

H460 cells [2] = experiment: Zebrafish tumor xenograft assay with pre-treated H460 cells; type: in vivo; details: cells exposed to 1 μM or 5 μM for 72 hours, washed out; days 1 and 4 post-injection; AhR-expressing cells
Method: H460 AHR wildtype (CR-V2) and knockout (CR-AHR3) cells were treated with 11-Cl-BBQ (1 and 5 μM) or 0.1% DMSO as vehicle control for 72 hours in RPMI media supplemented with 1% FBS. Cells were trypsinized, dyed with cell viable dye CM-Di1 (Thermofisher), and micro-injected into zebrafish embryos. The growth cancer xenografts were monitored at one day and four days post injection. Zebrafish were housed at the Sinnhuber Aquatic Research Laboratory at Oregon State University (Corvallis, OR, USA), and experiments were conducted according to Institutional Animal Care and Use Committee protocols.

H460 cells [3] = experiment: Senescence-associated beta-galactosidase staining, H460 cells; type: cell-based, human; details: 2.5 μM for 120 h; AhR-dependent
Method: H460 cells were seeded at 2×10^5 cells/well in 6-well plate overnight and treated with indicated compounds for 5 days. Media and treatments were refreshed on the […]. Cells were stained for senescence-associated β-galactosidase (SA-βgal) using 5-dodecanoylaminofluorescein di-β-D-galactopyranoside (C12FDG). Briefly, media were aspirated and replaced with fresh media containing 0.1 μM bafilomycin A1 (Calbiochem) and incubated for 1 hour in cell culture incubator. C12FDG (Setare Biotech) was added with a final concentration of 33 μM and incubated for another hour. Fluorescent signal was recorded using CytoFlex S cytometer for 10,000 cells per sample.

H460 cells [4] = experiment: Annexin V staining, H460 cells; type: cell-based, human; details: 1 and 10 μM, 72 hours
Method: […] Cells were stained with Annexin-V-PerCP conjugates (eBioscience, Waltham, MA, USA) for 15 minutes on ice before washing out residual stain and resuspending in 300 μL of binding buffer. 10,000 events were collected per sample. Data was acquired with a CytoFLEX S flow cytometer (Beckman Coulter, Brea, CA), and analyzed using the CytExpert software (Beckman Coulter).

H460 cells [5] = experiment: Colony forming assay, H460 cells; type: cell-based, human; details: 0.1-10 µM, 14 days
Method: H460 cells were seeded in 6-well plates at a density of 200 cell per well in complete growth media. 11-Cl-BBQ or DMSO were added the following day as indicated concentrations for two weeks in 1% FBS RMPI media, media and treatments were replenished twice a week. Cell colonies were fixed and stained with methylene blue in 50% ethanol solution overnight. Pictures of cell colonies were captured using the ChemiDoc imaging instrument, and quantified using OpenCFU software.

p53 = experiment: Western blot of p53 protein levels in H460 cells; type: cell-based, human; details: 5 μM; from 4 h, further at 6 and 9 h
Method: Whole cell lysate was prepared in RIPA lysis buffer with 1× Laemmli buffer, then denatured by heating at 100° C. for 5 minutes. Denatured proteins were separated in SDS-PAGE gel and transferred onto PVDF membrane. The PVDF membrane was incubated in TBST with 5% nonfat dry milk for one hour at room temperature prior to incubating with primary antibody of interest overnight at 4° C. with gentle rotation. Appropriate horse radish peroxidase conjugated secondary antibody was applied for one hour at room temperature. Signal was developed by applying SuperSignal West Pico chemiluminescence substrate and captured using the ChemiDoc imaging instrument. Primary antibodies used in this study: anti-AHR antibody (BML-SA210-Enzo Biochem, Farmingdale, NY), anti-p27^Kip1 antibody (610242-BD Biosciences), anti-p53 antibody (DO-1 sc-126-Santa Cruz Biotechnology, Dallas, TX), anti-p21 antibody (2947S-Cell Signaling Technology, Danvers, MA), and anti-GAPDH antibody (sc-36502, Santa Cruz).

MDA-MB-468 cells = experiment: Annexin-V apoptosis assay, MDA-MB-468 cells; type: cell-based, human; details: 0.25 μM, alone
Method: FIGS. 72A-72C presents the characterization of combinations on TNBC cell viability and cell death. Quantitation of Annexin-V staining of MDA-MB-468 cells treated with either 10 μM evoxine, 10 μM citropten, 0.25 μM 11-Cl-BBQ, or corresponding combinations for 72 hours (A and B, respectively). Quantifications represent averages of three independent experiments. C) Colony forming assay of MDA-MB-468 AhR-expressing and AhR KO cells treated with 100 nM Evoxine, 500 nM Citropten, […] 11-Cl-BBQ, or combinations of each compound with 11-Cl-BBQ.
Annexin-V staining was performed 48 hours post-treatment by harvesting cells (floating and attached) with trypsin, followed by addition of serum-containing media, and two washes with ice-cold PBS. Cells were stained with Annexin-V-PerCP conjugates (eBioscience, Waltham, MA, USA) for 15 minutes on ice before washing out residual stain and resuspending in 300 μL of binding buffer. 10,000 events were collected per sample. Data was acquired with a CytoFLEX S flow cytometer (Beckman Coulter, Brea, CA), and analyzed using the CytExpert software (Beckman Coulter).

cancer cell line = experiment: Cell viability of combinations of AhR ligand and synergizer (FIGS. 51, 52); type: cell-based; details: alone (FIG. 51)
Method: FIG. 51 provides data from cancer cell line trials using 11-Cl-BBQ alone, Evoxine alone, Citropten alone, and combinations comprising 11-Cl-BBQ and Citropten and 11-Cl-BBQ and Evoxine. […] The decrease in cell viability was more than additive. Specifically, for Evoxine in combination with Analog 523, the reduction in cell viability was: 31% at 1 μM; 41% at 3 μM; and 42% at 10 μM. For Citropten in combination with Analog 523, the reduction in cell viability was: 16% at 1 μM; 34% at 3 μM; and 43% at 10

[6] = Dose studies in mice, serum concentration; type: in vivo, mouse

**Q.** Which results are given for `O=c1c2cccc3cccc(c32)c2nc3cc(Cl)ccc3n12` [Analog 11-Cl-BBQ]?
**A.** HepG2 colony formation (HepG2 cells): little effect on colony formation inhibition; cells in S-phase (H460 cells [1]; vehicle 35%): 15%; cells in G1 phase (H460 cells [1]; vehicle 45%): > 70%; growth of lung cancer cells (lung cancer cells): decreased the growth of lung cancer cells in a dose-dependent manner; growth of cancer cell xenografts (H460 cells [2]): significantly lower growth; SA-β-gal expression (H460 cells [3]): significant increase in SA-β-gal expression; Annexin V staining (cell death) (H460 cells [4]): negative for Annexin V staining; colony formation of AhR-expressing H460 cells (H460 cells [5]): strongly inhibited colony formation; p53 protein levels (p53): increased p53 protein levels; apoptotic response (Annexin-V staining) (MDA-MB-468 cells): 7.3%; cell viability, monotreatments (cancer cell line): little effect; concentration detected in mouse serum ([6]; 2 mg/Kg intravenous administration): up to 1.6 μM; concentration detected in mouse serum ([6]; 8 mg/Kg oral administration): 3000 nM
